Among the data in US20250345169A1, “DEVICES FOR PROVIDING TISSUE SUPPORT DURING BREAST RECONSTRUCTION, AND SYSTEMS AND METHODS THEREOF” (Melodi Health, Inc., priority 2023, published 2025) are systemic plasma level values, retold here.

The conditions of this data set: in vivo.

Turning to `CN(C)c1ccc(O)c2c1C[C@H]1C[C@H]3[C@H](N(C)C)C(O)=C(C(N)=O)C(=O)[C@@]3(O)C(O)=C1C2=O` [Minocycline], the systemic plasma level result is “below detection limits”. Regarding `CO[C@H]1/C=C/O[C@@]2(C)Oc3c(C)c(O)c4c(O)c(c(/C=N/N5CCN(C)CC5)c(O)c4c3C2=O)NC(=O)/C(C)=C\C=C\[C@H](C)[C@H](O)[C@@H](C)[C@@H](O)[C@@H](C)[C@H](OC(C)=O)[C@@H]1C` [Rifampin], the systemic plasma level result is given as “below detection limits”.
